Assay results as given in patent US20210207099A1, “METHODS AND COMPOSITIONS FOR GENERATING CELLS OF ENDODERMAL LINEAGE AND BETA CELLS AND USES THEREOF” (priority 2018, published 2021).

Columns and labels:
Format in all cases: cell-based, human
[1] = tested on: HUES8 cells, intestinal differentiation protocol; assay: Intestine differentiation with cytoskeletal compounds; conditions: 1 μM for the first 24 hours of stage 2
Description: For differentiation to other endodermal lineages, HUES8 stem cells were cultured and passaged normally. Differentiations were initiated 24 hours after seeding 24-well plates at 0.521×10^6 cells/cm^2. Protocols for exocrine pancreas, intestine, and liver were adapted, from literature. Either latrunculin A or nocodazole were added as indicated in each protocol. All three differentiation protocols used the same stage 1 to induce endoderm. Stage 1 (4 days): BE1 media+100 ng/mL Activin A+3 μM CHIR99021 for the first 24 hours, followed with 3 days of BE1 containing 100 ng/mL Activin A only.
Intestine Differentiation: Stage 2 (4 days): BE2 media+3 μM CHIR99021+500 ng/mL FGF4 (R&D Systems, 235-F4). Either 1 μM latrunculin A was added for the first 24 hours of this stage, or 1 μM nocodazole was added for the entirety of stage 2. Stage 3 (7 days): BE3 media+500 ng/mL R-spondin1 (R&D Systems, 4645-RS)+100 ng/mL EGF (R&D Systems, 236-EG)+200 nM LDN193189.

F-actin = F-actin staining and G/F actin ratio by western blot; conditions: 1 μM for 24 hours, plated stage 4 cells
Description: Brightfield images were taken with a Leica DMi1 inverted light microscope, and fluorescence images were captured with a Nikon A1Rsi confocal microscope. For immunostaining, cells were fixed with 4% paraformaldehyde (PFA) at room temperature for 30 minutes. They were then blocked and permeabilized for 45 minutes at room temperature with an immunocytochemistry (ICC) solution consisting of 0.1% triton X (Acros Organics, 327371000) and 5% donkey serum (Jackson Immunoresearch, 017000-121) in PBS (Corning, 21-040-CV). Samples were then incubated with primary antibodies diluted in ICC solution overnight at 4° C., washed with ICC, incubated with secondary antibodies diluted in ICC for 2 hours at room temperature, and stained with DAPI for 15 minutes at room temperature. For histological sectioning, whole SC-β cell clusters generated with the planar protocol and mouse kidneys containing transplanted cells were fixed overnight with 4% PFA at 4° C. The in vitro clusters were also embedded in Histogel (Thermo Scientific, hg-4000-012). These samples were then paraffin-embedded and sectioned by the Division of Comparative Medicine (DCM) Research Animal Diagnostic Laboratory Core at Washington University in St. Louis. Paraffin was removed from sectioned samples with Histoclear (Thermo Scientific, C78-2-G), and antigen retrieval was carried out in a pressure cooker (Proteogenix, 2100 Retriever) with 0.05 M EDTA (Ambion, AM9261). Slides were blocked and permeabilized with ICC solution for 45 minutes, incubated with primary antibodies in ICC solution overnight at 4° C., and incubated with secondary antibodies for 2 hours at room temperature. Slides were then sealed with DAPI Fluoromount-G (SouthernBiotech, 0100-20).
G/F actin ratio was determined by western blot following the instructions of the G-actin/F-actin In Vivo Assay Kit (Cytoskeleton, Inc, BK037). Western blot was visualized using SuperSignal West Pico PLUS Chemiluminescent substrate (ThermoScientific, 34577) and the Odyssey FC (LI-COR) imager.

[2] = tested on: plated pancreatic progenitors; assay: Single-cell RNA sequencing of plated pancreatic progenitors treated throughout stage 4; conditions: 0.5 μM latrunculin A throughout stage 4
Description: Cells generated with the suspension protocol were single-cell dispersed with TrypLE from clusters at the end of stage 3 and seeded onto collagen 1 coated 24-well plates at 0.625×10^6 cells/cm^2. Either 0.5 μM latrunculin A or 5 μM nocodazole were added throughout the entirety of stage 4. At the end of stage 4, cells were single-cell dispersed, suspended in DMEM, and submitted to the Washington University Genome Technology Access Center. Library preparation was done using the Chromium Single Cell 3′ Library and Gel Bead Kit v2 (10× Genomics, 120237). Briefly, single cells were isolated in emulsions using a microfluidic platform, and each single cell emulsion was barcoded with a unique set of oligonucleotides. The GemCode Platform was used to carry out reverse transcription within each single cell emulsion, which was amplified to construct a library. The libraries were sequenced with paired-end reads of 26×98 primerbp using the Illumina HiSeq2500.
Seurat v2.0 was used to perform single cell RNA analyses. Duplicate cells and cells with high mitochondrial gene expression were filtered out using FilterCells (>9000 total genes and >5% mitochondrial genes for Untreated Control, >6000 genes and >6% mitochondrial genes for latrunculin A, >12000 genes and >4% mitochondrial genes for nocodazole). Each data set was normalized using global-scaling normalization. FindVariableGenes identified and removed outlier genes using scaled z-score dispersion. The datasets were then combined and a canonical correlation analysis (CCA) was performed with RunMultiCCA. AlignSubspace was used to align the CCA subspaces and generated a new dimension reduction for integrated analysis. Unsupervised TSNE plots were generated using RunTSNE, and the resulting clusters were defined and labeled using FindMarkers. VInPlot (Violin plots) and FeaturePlot (tsne plots) were used to visualize differences in gene expressions across each cluster and conditions.

C/C1=C/C(=O)O[C@@H]2C[C@@H](CC[C@H](C)/C=C\C=C\CC1)O[C@@](O)([C@@H]1CSC(=O)N1)C2 [latrunculin A]
markers of intestinal stem cells and Paneth cells [1]: greatly increased markers intestinal stem cells as well as Paneth cells | F-actin polymerization state (F-actin): almost complete depolymerization of F-actin | G/F-actin ratio (F-actin): increased G/F-actin ratio | PDX1 expression by immunostaining (F-actin): maintenance of PDX1 expression | percentage of cells in the NKX6-1+ population (pancreatic progenitor 2) [2]: 2.5% | percentage of cells with endocrine induction [2]: 44.7%
